# “And” between values parts separate entries of the source, which are not always exact repeats. Equal entries are not always repeated.
# What was measured:
# male beagle dogs = conditions: dog, in vivo
# Description: Three groups of four non-naïve male beagle dogs were used in the study. […] Doses were administered orally by gavage and clinical observations were taken continuously following dosing: hourly for the first four hours, and then twice daily cage-side observations for the duration of the inter-dose or post-dose interval. Observations were made of clinical signs, mortality, injury and availability of food and water. Animals were fasted for 24 hr prior to dosing. Dogs in each group were exposed to only one drug, or the combination; each dose was administered only once, with a subsequent dose administered after a recovery period of 4 days.
# in vivo [1] = conditions: both, minipig
# minipigs = conditions: ongoing 9-month study past month 7
# in vivo [2] = conditions: both, minipig; remark: listed apart in the source
# healthy volunteers = assay: clinical
# Description: (§1) Safety observations included vital signs, physical examination, clinical laboratory tests, ECGs, and adverse event reporting. Blood and urine samples were collected pre-dose and for 72 hours post-dose to assess the pharmacokinetics.
# clinical = conditions: human; for AUC(0-t): AUC(0-t) (mean ± SD); for Vd/F: Vz/F (mean ± SD); for CL renal: plasma and urine
# Description: as §1
# [3] = single 150 mg oral dose, fasted
# [4] = single 300 mg oral dose, fasted
# [5] = plasma, po, 50 mg, single 50 mg oral dose, fasted
# [6] = plasma, po, 150 mg, single 150 mg oral dose, fasted
# [7] = plasma, po, 150 mg, single 150 mg oral dose, fed
# [8] = plasma, po, 300 mg, single 300 mg oral dose, fasted
smiles,measurement,setting,value
"CCCN[C@@H]1CCc2nc(N)sc2C1 [(R)-pramipexole, (6R)-4,5,6,7-tetrahydro-N6-propyl-2,6-benzothiazole-diamine]",observable effects in dogs,male beagle dogs,no observable effects
same,functional separation between the (S)- and (R)-enantiomers,"male beagle dogs; male, beagle, 4 days","10,000-20,000 fold"
same,NOAEL at 14 days,in vivo [1],75 mg/kg
same,deaths and clinical observations,minipigs,no deaths attributed to test article or significant clinical observations
same,NOAEL at 3 months,in vivo [2],50 mg/kg
same,CL/F (mean ± SD),"healthy volunteers; 50 mg SD, Fasted",706 ± 182 mL/h
same,CL/F (mean ± SD),"healthy volunteers; 150 mg SD, Fasted",692 ± 183 mL/h
same,CL/F (mean ± SD),"healthy volunteers; 150 mg SD, second 150 mg line, Food printed Fasted",774 ± 165 mL/h
same,CL/F (mean ± SD),"healthy volunteers; 300 mg SD, Fasted",659 ± 260 mL/h
same,"urinary excretion of unchanged drug, share of drug elimination",healthy volunteers; across dose levels,approximately 70%
same,CL/F (mean ± SD),"healthy volunteers; single 50 mg oral dose, fasted",42400 ± 10900 mL/h
same,Fe (mean ± SD),"healthy volunteers; single 50 mg oral dose, fasted",70.7 ± 10.4 % Dose
same,Ue (mean ± SD),"healthy volunteers; single 50 mg oral dose, fasted",35.3 ± 5.19 mg and 35.3 ± 5.19 ^ mg
same,λz (mean ± SD),"healthy volunteers; single 50 mg oral dose, fasted",0.1064 ± 0.0171 h⁻¹
same,CL/F (mean ± SD),healthy volunteers; [3],41500 ± 11000 mL/h
same,Fe (mean ± SD),healthy volunteers; [3],40.3 ± 4.69 % Dose
same,Ue (mean ± SD),healthy volunteers; [3],60.5 ± 7.04 mg and 60.5 ± 7.04 ^ mg
same,λz (mean ± SD),healthy volunteers; [3],0.1001 ± 0.0087 h⁻¹
same,CL/F (mean ± SD),"healthy volunteers; single 150 mg oral dose, fed",46400 ± 9900 mL/h
same,λz (mean ± SD),"healthy volunteers; single 150 mg oral dose, fed",0.1152 ± 0.0256 h⁻¹
same,effect of a high fat/high calorie meal on absorption and elimination,"healthy volunteers; single 150 mg, fed versus fasted",essentially no effect
same,CL/F (mean ± SD),healthy volunteers; [4],39500 ± 15600 mL/h
same,Fe (mean ± SD),healthy volunteers; [4],65.8 ± 9.33 % Dose
same,Ue (mean ± SD),healthy volunteers; [4],198 ± 28.0 mg and 198 ± 28.0 ^ mg
same,λz (mean ± SD),healthy volunteers; [4],0.1151 ± 0.0309 h⁻¹
same,time of maximum concentration post-dose,"healthy volunteers; single oral 50, 150, 300 mg",approximately 2 hours
same,safety and tolerability,"healthy volunteers; single oral doses of 50, 150, 300 mg",safe and well-tolerated
same,AUC(0-t),"clinical; blood, po, 50 mg, single 50 mg oral dose, fasted",989 ng·h/mL
same,AUC(0-inf),"clinical; blood, po, 50 mg, AUC(inf) (mean ± SD), single 50 mg oral dose, fasted",1240 ng·h/mL
same,AUC(0-t),"clinical; blood, po, 150 mg, single 150 mg oral dose, fasted",3390 ng·h/mL
same,AUC(0-inf),"clinical; blood, po, 150 mg, AUC(inf) (mean ± SD), single 150 mg oral dose, fasted",3820 ng·h/mL
same,AUC(0-t),"clinical; blood, po, 300 mg, single 300 mg oral dose, fasted",8340 ng·h/mL
same,Cmax,"clinical; in vivo, oral, 150 mg",315 ± 62 ng/mL
same,Tmax,"clinical; in vivo, oral, 150 mg",2.58 h
same,AUC(0-inf),"clinical; in vivo, oral, 150 mg, AUC (inf) (mean ± SD), CL001, 150 mg SD, second 150 mg line, Food printed Fasted",3400 ng·h/mL
same,AUC(0-t),"clinical; in vivo, oral, 150 mg, CL001, 150 mg SD, second 150 mg line, Food printed Fasted",3100 ng·h/mL
same,Vd/F,"clinical; in vivo, oral, 150 mg, 150 mg SD, second 150 mg line, Food printed Fasted",406 ± 62.8 L
same,AUC(0-inf),"clinical; in vivo, po, 300 mg, AUC(inf) (mean ± SD), single 300 mg oral dose, fasted",8620 ng·h/mL
same,CL renal,"clinical; po, 50 mg",628 ± 149 mL/min
same,CL renal,"clinical; po, 150 mg",310 ± 74.3 mL/min
same,CL renal,"clinical; po, 300 mg",441 ± 159 mL/min
same,AUC(0-t),clinical; [5],989 ± 295 ng·h/mL
same,AUC(0-inf),"clinical; plasma, po, 50 mg, AUC(inf) (mean ± SD), single 50 mg oral dose, fasted",1250 ng·h/mL
same,Vd/F,clinical; [5],395 ± 61.9 L
same,AUC(0-inf),"clinical; plasma, po, 50 mg, mean exposure (AUC0-∞), single oral 50 mg, fasted",1250 ng·h/mL
same,Cmax,"clinical; plasma, po, 150 mg",360 ng/mL
same,AUC(0-t),clinical; [6],3390 ng·h/mL
same,AUC(0-t),clinical; [7],3100 ng·h/mL
same,AUC(0-inf),"clinical; plasma, po, 150 mg, AUC(inf) (mean ± SD), single 150 mg oral dose, fasted",3820 ng·h/mL
same,AUC(0-inf),"clinical; plasma, po, 150 mg, AUC(inf) (mean ± SD), single 150 mg oral dose, fed",3400 ng·h/mL
same,Vd/F,clinical; [6],411 ± 81 L
same,Vd/F,clinical; [7],406 ± 62.8 L
same,AUC(0-inf),"clinical; plasma, po, 150 mg, mean exposure (AUC0-∞), single oral 150 mg, fasted",3820 ng·h/mL
same,Cmax,"clinical; plasma, po, 300 mg",781 ng/mL
same,Tmax,"clinical; plasma, po, 300 mg",1.96 h
same,AUC(0-t),clinical; [8],8340 ng·h/mL
same,AUC(0-inf),"clinical; plasma, po, 300 mg, AUC(inf) (mean ± SD), single 300 mg oral dose, fasted",8620 ng·h/mL
same,Vd/F,clinical; [8],346 ± 98.5 L
same,AUC(0-inf),"clinical; plasma, po, 300 mg, mean exposure (AUC0-∞), single oral 300 mg, fasted",8620 ng·h/mL

# — patent US9849116B2 (KNOPP BIOSCIENCES LLC, priority 2008, dated 2017)
